Data: US20260262643A1, “HERBICIDAL BENZOXAZINES” (FMC CORPORATION, priority 2022, published 2026)

How the values were obtained:
Pigweed, Redroot [1] = test: Test C preemergence; assay type: in vivo, Amaranthus retroflexus; conditions: 1000 g ai/ha, visual rating after 10 days, 0 to 100 scale (0 no effect, 100 complete control)
From the text: (§1) Seeds of plant species selected from barnyardgrass (Echinochloa crusgalli), blackgrass (Alopecurus myosuroides), corn (Zea mays), foxtail, giant (giant foxtail, Setaria faberi), green foxtail (Setaria viridis), goosegrass (Eleusine indica), kochia (Bassia scoparia), oat, wild (wild oat, Avena fatua), pigweed, palmer (palmer amaranth, palmer pigweed, Amaranthus palmeri), Pigweed, Redroot (redroot pigweed, Amaranthus retroflexus), ragweed (common ragweed, Ambrosia artemisiifolia), ryegrass, Italian ([…] ryegrass, Lolium multiflorum), soybean (Glycine max), and wheat (Triticum aestivum) were planted into a blend of loam soil and sand and treated preemergence with a directed soil spray using test chemicals formulated in a non-phytotoxic solvent mixture which included a surfactant. At the same time, plants selected from these crops and weed species and also galium (catchweed bedstraw, Galium aparine) and horseweed (Erigeron canadensis) were planted in pots containing the same blend of loam soil and sand and treated with postemergence applications of test chemicals formulated in the same manner. Plants ranged in height from 2 to 10 cm and were in the one- to two-leaf stage for the postemergence treatment. Treated plants and untreated controls were maintained in a greenhouse for 10 days, after which time all treated plants were compared to untreated controls and visually evaluated for injury. Plant response ratings, summarized in Table C, are based on a 0 to 100 scale where 0 is no effect and 100 is complete control. A dash (-) response means no test result.

Pigweed, Redroot [2] = test: Test C postemergence; assay type: in vivo, Amaranthus retroflexus; conditions: 1000 g ai/ha
From the text: as §1

corn = test: Test C postemergence; assay type: in vivo, Zea mays; conditions: Postemergence, 1000 g ai/ha
In short: (§2)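 Test material, in non-phytotoxic solvent with surfactant, was sprayed on the soil directly after seeding (preemergence) or on young plants of 2–10 cm with one to two leaves (postemergence). Greenhouse, 10 days; 0–100 visual control scale.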

barnyardgrass [3] = test: Test C postemergence; assay type: in vivo, Echinochloa crusgalli; conditions: Postemergence, 1000 g ai/ha
In short: as §2

blackgrass = test: Test C postemergence; assay type: in vivo, Alopecurus myosuroides; conditions: Postemergence, 1000 g ai/ha
In short: as §2

kochia [4] = test: Test C preemergence; assay type: in vivo, Bassia scoparia; conditions: Preemergence, 1000 g ai/ha; visual rating after 10 days, 0 to 100 scale (0 no effect, 100 complete control)
In short: as §2

ragweed [5] = test: Test C preemergence; assay type: in vivo, Ambrosia artemisiifolia; conditions: Preemergence, 1000 g ai/ha; visual rating after 10 days, 0 to 100 scale (0 no effect, 100 complete control)
In short: as §2

wheat = test: Test C postemergence; assay type: in vivo, Triticum aestivum; conditions: Postemergence, 1000 g ai/ha
In short: as §2

ragweed [6] = test: Test C postemergence; assay type: in vivo, Ambrosia artemisiifolia; conditions: Postemergence, 1000 g ai/ha
In short: as §2

galium = test: Test C postemergence; assay type: in vivo, Galium aparine; conditions: Postemergence, 1000 g ai/ha
In short: as §2

foxtail, giant [7] = test: Test C postemergence; assay type: in vivo, Setaria faberi; conditions: Postemergence, 1000 g ai/ha
In short: as §2

barnyardgrass [8] = test: Test C preemergence; assay type: in vivo, Echinochloa crusgalli; conditions: Preemergence, 1000 g ai/ha; visual rating after 10 days, 0 to 100 scale (0 no effect, 100 complete control)
In short: as §2

kochia [9] = test: Test C postemergence; assay type: in vivo, Bassia scoparia; conditions: Postemergence, 1000 g ai/ha
In short: as §2

ryegrass, Italian [10] = test: Test C preemergence; assay type: in vivo, Lolium multiflorum; conditions: Preemergence, 1000 g ai/ha; visual rating after 10 days, 0 to 100 scale (0 no effect, 100 complete control)
In short: as §2

ryegrass, Italian [11] = test: Test C postemergence; assay type: in vivo, Lolium multiflorum; conditions: Postemergence, 1000 g ai/ha
In short: as §2

foxtail, giant [12] = test: Test C preemergence; assay type: in vivo, Setaria faberi; conditions: Preemergence, 1000 g ai/ha; visual rating after 10 days, 0 to 100 scale (0 no effect, 100 complete control)
In short: as §2

[13] = 10 days, visual 0 to 100 scale (0 no effect, 100 complete control)
[14] = 0 to 100 scale, 0 no effect, 100 complete control

CCC1CN(C(=O)c2ccnc(-c3cccnc3)c2)c2cccc(Cl)c2O1 (racemic) [Compound 286]
Plant response rating, Pigweed, Redroot (Pigweed, Redroot [1]): 0
Plant response rating, Pigweed, Redroot (Pigweed, Redroot [2]; [13]): 0
Plant response rating, Corn (corn; [13]): 0
Plant response rating, Barnyardgrass (barnyardgrass [3]; [13]): 0
Plant response rating, Blackgrass (blackgrass; [13]): 0
Plant response rating, Kochia (kochia [4]): 0
Plant response rating, Ragweed (ragweed [5]): 0
Plant response rating, Wheat (wheat; [13]): 0
Plant response rating, Ragweed (ragweed [6]; [13]): 0
Plant response rating, Galium (galium; [13]): 0
Plant response rating, Foxtail, Giant (foxtail, giant [7]; [13]): 0
Plant response rating, Barnyardgrass (barnyardgrass [8]): 0
Plant response rating, Kochia (kochia [9]; [13]): 0
Plant response rating, Ryegrass, Italian (ryegrass, Italian [10]): 0
Plant response rating, Ryegrass, Italian (ryegrass, Italian [11]; [13]): 0
Plant response rating, Foxtail, Giant (foxtail, giant [12]): 0

O=C(c1cccc(-n2cncn2)c1)N1CC2(CC2)Oc2ccccc21 [Compound 201]
Plant response rating, Pigweed, Redroot (Pigweed, Redroot [2]; [14]): 0
Corn plant response rating (crop injury, 0 = no effect, 100 = complete kill) at 1000 g/ha (corn; Zea mays, post-emergence, 240 h, 0 to 100 scale, 0 no effect, 100 complete control): 0%
Plant response rating, Barnyardgrass (barnyardgrass [3]; [14]): 10
pest or weed control at 1000 g/ha (blackgrass; Alopecurus myosuroides, post-emergence, 240 h, 0 to 100 scale, 0 no effect, 100 complete control, read-out: Plant response rating, Blackgrass): 0%
Plant response rating, Kochia (kochia [4]): 0
Plant response rating, Ragweed (ragweed [5]): 0
Plant response rating, Wheat (wheat; [14]): 0
Plant response rating, Ragweed (ragweed [6]; [14]): 0
Plant response rating, Galium (galium; [14]): 40
Plant response rating, Foxtail, Giant (foxtail, giant [7]; [14]): 10
Plant response rating, Barnyardgrass (barnyardgrass [8]): 0
Plant response rating, Kochia (kochia [9]; [14]): 10
Plant response rating, Ryegrass, Italian (ryegrass, Italian [10]): 0
Plant response rating, Ryegrass, Italian (ryegrass, Italian [11]; [14]): 0
Plant response rating, Foxtail, Giant (foxtail, giant [12]): 10
